In US20100273748A1, “ANTIMICROBIAL THERAPY” (priority 2006, published 2010):

Legend:
E. coli = assay: Bacterial growth inhibition with or without NaHCO3; assay type: cell-based
Staphylococcus aureus = assay: Bacterial growth inhibition (turbidity OD600) with or without carbonate; assay type: cell-based
antigen presentation = assay: Antigen presentation in vitro; assay type: cell-based
Salmonella = assay: Bacterial growth inhibition with or without NaHCO3; assay type: cell-based; details: 16 uM CRAMP without NaHCO3
Group B Strep (GBS) = assay: Bacterial growth inhibition with or without NaHCO3; assay type: cell-based; details: 16 uM CRAMP without NaHCO3
cathelicidin [1] = assay: qPCR of cathelicidin mRNA in cultured keratinocytes; assay type: cell-based, human
Protocol: Cell culture and stimuli. Human keratinocytes were grown in serum-free EpiLife® cell culture media (Cascade Biologics; Portland, Oreg.) containing 0.06 mM Ca2+ and 1× EpiLife® defined growth supplement (EDGS) at 37° C. under standard tissue culture conditions. Stock cultures were maintained for up to five passages in this media with the addition of 50 U/mL penicillin and 50 μg/mL streptomycin. HaCaT keratinocytes were cultured in DMEM (Sigma, St. Louis, Mo.) with 10% FCS. Cells at 50-70% confluence were stimulated in fresh medium after preincubation with 1,25(OH)2 vitamin D3 (1,25D3; 0.1-100 nM, 4-24 h; Sigma). Alternatively, NHEK were stimulated in the presence of 1,25D3 (0.1-100 nM). Stimuli included TLR2,6 ligands Malp-2 (0.001-0.5 μg/ml; Alexis Biochemicals, Carlsbad, Calif.), FSL-1 (1-2 μg/ml, Invivogen, San Diego, Calif.) and zymosan (50 μg/ml; Invivogen), as well as flagellin (50 ng/ml; Alexis), LPS (1 μg/ml; Sigma), lipoteichoic acid (LTA; 10 μg/ml; Sigma), 19 kDA lipopeptide (10 μg/ml, a kind gift from S. Krutzik, Division of Dermatology, UCLA), CpG DNA (10 μg/ml; Sigma), Ca2+ (1.7 mM), LPS (1 μg/ml; Sigma), TNFα (20 ng/ml; Chemicon Temecula, Calif.) and TGFβ1 (0.1-1 μg/ml; R&D Systems, Minneapolis, Minn.). A TLR2 blocking antibody (αTLR2; clone TL2.1, 5 μg/ml, eBioscience, San Diego, Calif.) was utilized to investigate the role of TLR2 signaling. Furthermore, keratinocytes were pretreated with a vitamin D receptor antagonist (VDR-antagonist ZK159222 Schering AG; 10^-7M) or the CYP inhibitor itraconazole (ITRA; 10^-7M) before stimulation with TGFβ in the presence of 25OH vitamin D3 (25D3, 10 nM, Sigma).
Real-time RT-PCR (qPCR). RNA was extracted from cells, epidermal constructs or tissue using Trizol® and 1 μg RNA was reverse transcribed using iScript® (BioRad, Hercules, Calif.). Expression of cathelicidin and GAPDH was analysed by real-time RT-PCR. Predeveloped Taqman® assay probes (ABI, Foster City, Calif.) were used for the analyses of the expression of CYP24A1 (24-hydroxylase), CYP27B1 (1α-hydroxylase), CD14, CD36, TLR1, TLR2, TLR4, TLR6 and murine CD14. All analyses were performed in triplicate from 2-5 independent experiments in an ABI Prism® 7000 Sequence Detection System. Fold induction relative to the vehicle treated control in in vitro experiments was calculated using the comparative Ct method, where ΔΔCt is ΔCt(stimulant)-ΔCt(vehicle), ΔCt is Ct(gene)-Ct(GAPDH) and Ct is the cycle at which an arbitrary detection threshold is crossed. For quantification of transcript abundance in tissue samples target gene expression was normalized to GAPDH and compared to non-treated or non-injured skin.

IL-8 = assay: qPCR of IL-8 transcript in cultured keratinocytes; assay type: cell-based, human; details: Malp-2 (0.1 μg ml^−1) only
Protocol: (§1) Cell culture and stimuli. Human keratinocytes were grown in serum-free EpiLife® cell culture media (Cascade Biologics; Portland, Oreg.) containing 0.06 mM Ca2+ and 1× EpiLife® defined growth supplement (EDGS) at 37° C. under standard tissue culture conditions. Stock cultures were maintained for up to five passages in this media with the addition of 50 U/mL penicillin and 50 μg/mL streptomycin. HaCaT keratinocytes were cultured in DMEM (Sigma, St. Louis, Mo.) with 10% FCS. Cells at 50-70% confluence were stimulated in fresh medium after preincubation with 1,25(OH)2 vitamin D3 (1,25D3; 0.1-100 nM, 4-24 h; Sigma). Alternatively, NHEK were stimulated in the presence of 1,25D3 (0.1-100 nM). […]
(§2) Real-time RT-PCR (qPCR). […] Expression of cathelicidin and GAPDH was analysed by real-time RT-PCR. […] Fold induction relative to the vehicle treated control in in vitro experiments was calculated using the comparative Ct method, where ΔΔCt is ΔCt(stimulant)-ΔCt(vehicle), ΔCt is Ct(gene)-Ct(GAPDH) and Ct is the cycle at which an arbitrary detection threshold is crossed. For quantification of transcript abundance in tissue samples target gene expression was normalized to GAPDH and compared to non-treated or non-injured skin.

acetylated histone H4 = assay: Histone H4 acetylation in keratinocytes (immunofluorescence, Western blot); assay type: cell-based, human; details: NHEK stimulated with butyrate or TLR ligand
Protocol: Panel a; Immunofluorescence staining of acetylated histone H4 protein in NHEK treated with HDACi in the presence or absence of 1,25D3. […] Panel b: Western blot of acetylated histone 4 from keratinocytes treated with the HDACi butyrate or TLR agonists. […] Bar=30 μM.
The abundance of acetylated histone was directly measured to confirm the inhibitory effects of butyrate and TSA on HDACs. […] To determine if changes in histone acetylation occur upon stimulation of keratinocytes with TLR ligands NHEK were stimulated with different TLR ligands and histone acetylation was assessed.

cathelicidin [2] = assay: Cathelicidin peptide immunostaining in organotypic epidermal constructs; assay type: cell-based, human
Source text: Organotypic culture. Epiderm™ human skin-like tissue constructs were obtained from MatTek (Ashland, Mass.) and cultured according to manufacturer's instructions. […] Skin constructs were cut after stimulation and transferred to Trizol® (Invitrogen, Carlsbad, Calif.) for RNA extraction or immediately frozen in Tissue-Tek® (Sakura, Torrance, Calif.) for immunostaining.
Immunostaining. After fixation in 2% PFA and subsequent washings in PBS, sections from skin tissue or epidermal constructs were blocked in 3% BSA in PBS for 30 min at RT and stained with anti-cathelicidin LL-37 primary antibody or preimmune serum. After washings in PBS, slides from epidermal constructs were re-probed with a FITC labeled goat anti-chicken antibody. Nuclei were detected with DAPI. After subsequent washings with PBS slides, were mounted in ProLong Anti-Fade reagent (Molecular Probes, Eugene, Oreg.) and evaluated with an Olympus BX41 microscope (Olympus, Melville, N.Y.). Paraffin embedded formalin fixed tissue sections were rehydrated in a series of toluene, ethanol, and PBS. Endogenous peroxidase activity was quenched by 30 min incubation in 0.3% H2O2 in water, and sections microwaved for 4 min in antigen retrieval solution (0.01M citric acid, 0.05M

cathelicidin promoter = assay: Cathelicidin (CAMP) promoter luciferase reporter in HaCat keratinocytes; assay type: cell-based, human
Source text: Promoter analysis and site directed mutagenesis. […]. Primers were designed to introduce an NheI restriction site at the 5″end and an XhoI restriction site at the 3″end of the amplicon. The amplification product was cloned into the TOPO vector (Invitrogen) and transformed into E. coli TOP10 OneShot competent cells (Invitrogen). After DNA purification using the WizardPLus, SV Miniprep purification system (Promega, Madison, Wis.) the construct was digested with NheI and XhoI and then subcloned into the promoterless pGL3-basic firefly luciferase vector (Promega). […]. The resulting plasmid lacking the VDRE binding site cloned in the pGL3-basic vector was termed pGL-3 1500-VDRE. All resulting constructs were confirmed by sequencing. For transfection HaCat cells were seeded in 24 well plates (BD Biosciences) and used for transfection at 50 to 70% confluence. Cells were transfected with the indicated CAMP reporter plasmids and 0.1 μg of an internal-control Renilla luciferase expression plasmid (pRL-TK; Promega, Madison, Wis.) by using 1.5 μl of transfection reagent Fugene 6 (Roche) according to the manufacturer's instructions. […] Firefly luciferase activity from the CAMP pGL3 reporter vectors and Renilla luciferase activity were measured by the Dual Luciferase Assay system (Promega) in a luminometer (Optocomp I, MGM Instruments, Hamden, Conn.). […]

CYP27B1 = assay: qPCR of CYP27B1 mRNA in cultured keratinocytes; assay type: cell-based, human; details: 24 hours, TGF 1 μg/ml, TNFα 20 ng/ml, TLR2 ligand Malp-2
Protocol: as §1, §2

[3] = test system: wild-type S. aureus (clinical isolate); assay: Radial diffusion assay; assay type: cell-based
C. albicans = assay: Liquid assay, minimum fungicide concentration; assay type: cell-based, Candida albicans
Protocol: Action against the C. albicans was determined in Dixon medium (0.6% Peptone, 4% Malt Extract, 1% Glucose, 0.1% Ox Bile, 1% Tween-80) in sterile 96-well microtiter plates (Corning Inc., Corning, N.Y.) at a final volume of 50 ml. […] Microtiter plates were incubated at 37° C. for 24 h with peptides, then plated on Dixon agar to determine the MFC (minimum fungicide concentration).

[4] = test system: enteroinvasive E. coli 029; assay: Radial diffusion assay; assay type: cell-based
[5] = test system: Staphylococcus aureus mprF; assay: Radial diffusion assay; assay type: cell-based
Protocol: Sweat collection and processing. Sweat was collected on paper tissues (Kimwipes, Kimberly-Clark, Ga.) from healthy volunteers after exercise. After collection, 20 ml of sweat was centrifuged at 2000 g for 15 min. at 4° C., filtered through a […] (Acrodisc syringe filter, 0.2 mm, low protein binding, Fisher scientific, Tustin, Calif.), and frozen at −80° C. For some experiments sweat was lyophilized to dryness, then suspended in 400 μl of distilled water (DW: cell culture grade, endotoxin free, GibcoBRL, Grand island, NY). For analysis of LL37 processing by sweat, 1.6 nmol of LL-37 synthetic peptide was incubated in 50 ml of sweat for 0, 1, 6, 24 hrs at 37° C. or 4° C. In some experiments proteinase inhibitors including; mixed protease inhibitor cocktail (1tab/10 ml, Roche, Indianapolis, Ind.), […] Bestatin, 10 mg/ml E-64, 10 mg/ml Aprotinin, (Sigma, St Louis, Mo.); 100 mM AEBSF, 100 mM Neutrophil elastase inhibitor (NEI) or 100 mM leukocyte elastase inhibitor (LEI) (Calbiochem, San Diego, Calif.) were added during incubation. After incubation, 2 ml was assayed by radial diffusion assay to determine antibacterial activity. For analysis by HPLC 32 nmoles LL-37 was incubated in 100u1. To control for potential contamination from paper tissues, parallel processing was done on tissues soaked in phosphate-buffered saline (PBS:137 mM NaCl, 2.7 mM KCL, 4.3 mM Na2HPO4-H2O, 1.4 mM KH2PO4, pH 7.4). No antimicrobial activity was detectable in these preparations. Protein concentrations were evaluated by BCA assay (protein assay reagent, Pierce, Rockford, Ill.) or Bradford protein assay (Bio-Rad, Hercules, Calif.) according to manufacture's instructions. Human tissue and blood collection was approved by the UCSD Human Research Protection Program.
Antimicrobial assays. For screening of antimicrobial activity of HPLC fractions, radial diffusion assay was used. Lyophilized HPLC fractions were dissolved in DW (GibcoBRL, Grand Island, N.Y.), and tested against Staphylococcus aureus mprF. Thin plates (1 mm) of 1% agarose in 0.5% tryptone containing approximately 1×10^6 cells/ml of S. aureus mprF were used. 1 mm wells were punched in the plates and […] of samples dissolved in tissue culture grade sterile water were loaded in each well.

[6] = test system: Group A Streptococcus (NZ131)
Protocol: Solution killing was done in 10% TSB in 10 mM PB (TSB=30 gm/L Tryptic Soy Broth, Sigma, St Louis Mo.; 20×PB=27.6 g/L NaH2PO4-H2O, 53.65 g/L Na2HPO4-7H2O, pH 7.4). Bacteria in log-phase growth were suspended to 1×10^6 cells/ml, peptide added and incubated at 37° C. for 2 hr. Bacteria were then plated on TSB agar (TSB, Bactoagar 13 g/L, Becton Dickinson, Sparks Md.) for direct colony count and determination of CFU.
Activity against Group A Streptococcus (NZ131) was done only in solution assay as described.

[7] = 16 uM CRAMP without 50 mM NaHCO3

**Q.** Which susceptibility to peptide (E. coli; 16 uM CRAMP with 50 mM NaHCO3) does the source give for CRAMP here?
**A.** became susceptible

**Q.** And the susceptibility to peptide (E. coli; [7])?
**A.** resistant

**Q.** What about the susceptibility to peptide (Staphylococcus aureus; 16 uM CRAMP with 50 mM NaHCO3) of the same substance?
**A.** became susceptible

**Q.** And the susceptibility to peptide (Staphylococcus aureus; [7])?
**A.** resistant

**Q.** And the “change of minimal inhibitory concentration (MIC) by NaHCO3” value (Staphylococcus aureus; 20% TSB, 1 mM NaH2PO4, with or without 50 mM NaHCO3, pH 7.4)?
**A.** greatly reduced

**Q.** And the “antigen presentation in vitro” value (antigen presentation)?
**A.** inhibits antigen presentation in vitro

**Q.** What about the susceptibility to peptide (Salmonella) of the same substance?
**A.** susceptible even without NaHCO3

**Q.** And the susceptibility to peptide (Group B Strep (GBS))?
**A.** susceptible even without NaHCO3

**Q.** For Malp-2, which cathelicidin transcript abundance (cathelicidin [1]; Malp-2 (0.1 μg ml^−1) alone) is on record?
**A.** has no effect

**Q.** And the “cathelicidin response to Malp-2” value (cathelicidin [1]; keratinocyte monolayers in high calcium (1.7 mM), no 1,25D3)?
**A.** did not respond to TLR2,6 activation by Malp-2

**Q.** What about the “cathelicidin expression in response to TLR ligand” value (cathelicidin [1]; keratinocytes pretreated with 1,25D3 0.1 nM 24 hours, then TLR ligand 24 hours) of the same substance?
**A.** responded to Malp-2

**Q.** And the IL-8 expression (IL-8)?
**A.** increased when stimulated with only Malp-2

**Q.** And the “acetylation of histone H4” value (acetylated histone H4)?
**A.** also increased histone acetylation

**Q.** And the “cathelicidin peptide response to Malp-2” value (cathelicidin [2]; Malp-2 0.1 μg/ml with 1,25D3 (100 nM))?
**A.** did after its addition

**Q.** What about the “cathelicidin peptide response to Malp-2” value (cathelicidin [2]; Malp-2 0.1 μg/ml, absence of 1,25D3) of the same substance?
**A.** did not respond to Malp-2 in the absence of 1,25D3

**Q.** And the cathelicidin promoter activity (cathelicidin promoter; Malp-2 0.1 μg/ml in the presence of 1,25D3 (100 nM), construct including the VDRE)?
**A.** responsive to Malp-2

**Q.** What about the cathelicidin promoter activity (cathelicidin promoter; absence of 1,25D3 or the VDRE) of the same substance?
**A.** no significant effect

**Q.** What about the CYP27B1 expression (CYP27B1) of the same substance?
**A.** could be induced

**Q.** With “SSLLEKGLDGAKKAVGGLGKLGKDAVEDLESVGKGAVHDVKDVLDSV [DCD]” as the substance, how does the “Radial Diffusion Assay, minimal inhibitory concentration (MIC), S. aureus (wt)” value [3] read?
**A.** 4 μm

**Q.** And the “Liquid Assay, minimal concentration required to kill C. albicans ATCC 14053 (head printed truncated: albicans CC 14053)” value (C. albicans)?
**A.** 7 μm

**Q.** What about the “Radial Diffusion Assay, minimal inhibitory concentration (MIC), E. coli (O29))” value [4] of the same substance?
**A.** 4 μm

**Q.** What about the “Radial Diffusion Assay, minimal inhibitory concentration (MIC), S. aureus mprF (head printed truncated: aureus cF)” value [5] of the same substance?
**A.** 4 μm

**Q.** And the “Liquid Assay, minimal concentration required to kill GAS (NZ131)” value [6]?
**A.** 4 μm
